Test results: ChEMBL document CHEMBL1201862, “PubChem BioAssay data set” (2004)
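A five-concentration, 48-hour dose response in 96-well plates underlies each endpoint, interpolated linearly between surrounding concentrations. GI50: concentration for 50% inhibition of growth.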 The source made the active and inactive calls. Cut-off read from the data, not from the text of the source: active = GI50 up to about 1.1 µM and inactive = higher. Where a SMILES comes first, the peptide text is derived from it. The star is where a group is joined. Boc = CC(C)(C)OC(=O)*; Bn = c1ccc(C*)cc1

How the values were obtained:
Experiment in all cases: NCI-60 cell line screen, 48 h
786-0 = tested on: 786-0
ACHN = tested on: ACHN
COLO 205 = tested on: COLO 205
EKVX = tested on: EKVX
K562 = tested on: K562
MCF7 = tested on: MCF7
MOLT-4 = tested on: MOLT-4
Malme-3M = tested on: Malme-3M
NCI-H226 = tested on: NCI-H226
NCI-H23 = tested on: NCI-H23
NCI/ADR-RES = tested on: NCI/ADR-RES
OVCAR-5 = tested on: OVCAR-5
OVCAR-8 = tested on: OVCAR-8
RXF 393 = tested on: RXF 393
SF-539 = tested on: SF-539
SK-MEL-28 = tested on: SK-MEL-28
SK-MEL-5 = tested on: SK-MEL-5
SW-620 = tested on: SW-620
HCC 2998 = tested on: HCC 2998
HCT-15 = tested on: HCT-15

Row | Compound | GI50 (786-0) | GI50 (ACHN) | GI50 (COLO 205) | GI50 (EKVX) | GI50 (K562) | GI50 (MCF7) | GI50 (MOLT-4) | GI50 (Malme-3M) | GI50 (NCI-H226) | GI50 (NCI-H23) | GI50 (NCI/ADR-RES) | GI50 (OVCAR-5) | GI50 (OVCAR-8) | GI50 (RXF 393) | GI50 (SF-539) | GI50 (SK-MEL-28) | GI50 (SK-MEL-5) | GI50 (SW-620) | GI50 (HCC 2998) | GI50 (HCT-15) [µM]
1 | O=C(O)c1nc2cc(C(F)(F)F)ccc2nc1Nc1ccc(F)cc1 | 22.4 µM (inactive) | 12.3 µM (inactive) | 15.9 µM (inactive) | 21.9 µM (inactive) | 13.5 µM (inactive) | 22.2 µM (inactive) | 13.6 µM (inactive) | 12.4 µM (inactive) | 27 µM (inactive) | 16 µM (inactive) | 20 µM (inactive) | 35.1 µM (inactive) | 19.4 µM (inactive) | 16.3 µM (inactive) | 17.5 µM (inactive) | 25.6 µM (inactive) | 16.2 µM (inactive) | 17.3 µM (inactive) | – | –
2 | C=CCOC(C)(C)C1=CCC(C)CC1 (configuration not stated) | > 100 µM (inactive) | > 100 µM (inactive) | > 100 µM (inactive) | > 100 µM (inactive) | – | > 100 µM (inactive) | > 100 µM (inactive) | > 100 µM (inactive) | – | > 100 µM (inactive) | – | > 100 µM (inactive) | > 100 µM (inactive) | > 100 µM (inactive) | > 100 µM (inactive) | > 100 µM (inactive) | > 100 µM (inactive) | > 100 µM (inactive) | > 100 µM (inactive) | > 100
3 | C/C(=C1/N=C(c2ccccc2)OC1=O)c1cccs1 | 76 µM (inactive) | > 100 µM (inactive) | > 100 µM (inactive) | > 100 µM (inactive) | > 100 µM (inactive) | > 100 µM (inactive) | > 100 µM (inactive) | > 100 µM (inactive) | > 100 µM (inactive) | > 100 µM (inactive) | – | > 100 µM (inactive) | 68.9 µM (inactive) | > 100 µM (inactive) | > 100 µM (inactive) | > 100 µM (inactive) | > 100 µM (inactive) | > 100 µM (inactive) | > 100 µM (inactive) | > 100
4 | COc1ccc2c(=O)cc(-c3ccc(OC)c(OC)c3OC)oc2c1 | > 100 µM (inactive) | > 63.2 µM (inactive) | > 71.8 µM (inactive) | > 64.3 µM (inactive) | 37.1 µM (inactive) | – | 55.5 µM (inactive) | 40.4 µM (inactive) | > 65.9 µM (inactive) | > 100 µM (inactive) | 28.4 µM (inactive) | > 69 µM (inactive) | > 100 µM (inactive) | > 80.9 µM (inactive) | > 57.3 µM (inactive) | > 100 µM (inactive) | 49 µM (inactive) | > 100 µM (inactive) | > 63.8 µM (inactive) | > 100
5 | COC(=O)C(CC(C)C)NC(=O)CNC(=O)C(Cc1ccc(OCc2ccccc2)cc1)NC(=O)C(COCc1ccccc1)NC(=O)OC(C)(C)C (configuration not stated) (Boc-S(Bn)Y(Bn)GL-OMe; configuration not given here) | > 100 µM (inactive) | > 100 µM (inactive) | > 100 µM (inactive) | > 100 µM (inactive) | 3.49 µM (inactive) | > 100 µM (inactive) | > 100 µM (inactive) | > 100 µM (inactive) | > 100 µM (inactive) | > 100 µM (inactive) | > 100 µM (inactive) | > 100 µM (inactive) | > 100 µM (inactive) | > 100 µM (inactive) | > 100 µM (inactive) | > 100 µM (inactive) | > 100 µM (inactive) | > 100 µM (inactive) | – | –
6 | Nc1nc(OCc2ccccc2)c2nc[nH]c2n1 [6-O-BENZYLGUANINE] | 80.7 µM (inactive) | 47.4 µM (inactive) | 124 µM (inactive) | 99.5 µM (inactive) | 86.5 µM (inactive) | – | 67.6 µM (inactive) | 87.9 µM (inactive) | 47.5 µM (inactive) | 97.1 µM (inactive) | – | 80 µM (inactive) | 112 µM (inactive) | 32.5 µM (inactive) | 91.4 µM (inactive) | 140 µM (inactive) | 81.1 µM (inactive) | 169 µM (inactive) | 148 µM (inactive) | 57.1
7 | COc1c(O)c2c(c3cc(C(=O)N4CCc5c4c(O)c(OC)c4[nH]c(C(=O)N6CC7CC78C6=CC(=O)c6[nH]cc(C)c68)cc54)[nH]c13)CCN2C(N)=O (configuration not stated) [CC-1065] | 0.000381 µM (active) | 0.00298 µM (active) | 0.00168 µM (active) | 0.867 µM (active) | 0.00309 µM (active) | 0.0577 µM (active) | 0.0164 µM (active) | 0.00209 µM (active) | 0.000212 µM (active) | 0.000927 µM (active) | – | – | 0.000317 µM (active) | 0.188 µM (active) | 0.00366 µM (active) | 0.00184 µM (active) | 0.0126 µM (active) | 0.00105 µM (active) | 0.114 µM (active) | 0.0149
